Data on 86 compounds can be found in PubChem BioAssay AID1944 (The Scripps Research Institute Molecular Screening Center, 2009).

The source made the active and inactive calls. How the calls were made is not given here.

The experiment concerns the target Replicase polyprotein 1ab (Severe acute respiratory syndrome coronavirus) (UniProt P0C6X7). Nature of the experiment: SARS-CoV PLpro inhibitor potency, dose response, counter-screen for SARS-CoV 3CLpro inhibitor project, biochemical, luminescence (AID 1944). Particulars: SARS-CoV PLpro enzymatic assay. For orientation: A counterscreen serves to expose hits that act by an unwanted route or on another target.
In general, IC50 refers to the concentration at which inhibition is half-maximal. On to `Cc1cc(NC(=O)COn2nnc3ccc(S(C)(=O)=O)cc32)ccc1Br`, for which the IC50 is > 59.6 µM (inactive). For `Nc1ncc(Br)cc1S(=O)(=O)Nc1cc(C(F)(F)F)cc(C(F)(F)F)c1`, the IC50 is > 59.6 µM (inactive).

For the compound `CC(C)C12CN(C(=O)c3ccccc3[N+](=O)[O-])CC(C(C)C)(CN(C(=O)c3ccccc3[N+](=O)[O-])C1)C2=O`, the IC50 was > 59.6 µM (inactive). The figure for `COc1cccc(C(C(=O)Nc2ccc(F)cc2)N(C(=O)Cn2nnc3ccccc32)C2CC2)c1` (stereo unspecified) is > 59.6 µM (inactive); for `O=C1C(=O)N(CC2COc3ccccc3O2)c2ccccc21` (stereo unspecified) it is > 59.6 µM (inactive).

As for `O=C(Cn1nnc2ccccc21)c1ccc(Br)cc1`, the IC50 is 2.3 µM. The figure for `CCc1ccc2c(c1)C(NC(C)=O)C(=O)N2CCN1CCOCC1` (stereo unspecified) is > 59.6 µM (inactive). `COc1cc(C2CC(c3cccs3)=NN2C(=O)CCl)ccc1OC(F)F` (stereo unspecified): the IC50 was > 59.6 µM (inactive).

As for `O=C(/C=C/c1ccc(Cl)c([N+](=O)[O-])c1)NCc1cccnc1`, the IC50 is > 59.6 µM (inactive).

For `Cc1ccc(C2CC(c3cccs3)=NN2C(=O)CCl)cc1` (stereo unspecified), the IC50 result was “inactive”.

With `O=C1C(=O)N(C/C=C/c2ccccc2)c2ccccc21`, the IC50 was > 59.6 µM (inactive). On to `C[C@@]12C(=O)N(c3cccc(Br)c3)C(=O)N1[C@H](c1ccc(Cl)cc1)[C@@H]1C(=O)N(C3CCCCC3)C(=O)[C@@H]12`, for which the IC50 was > 59.6 µM (inactive). For the compound `CCc1cccc(CC)c1N(COC)C(=O)Cn1nnc2ccccc21`, the IC50 was > 59.6 µM (inactive). The result for `COc1ccc(C(C(=O)NCC2CCCO2)N(C(=O)Cn2nnc3ccccc32)c2ccc(NC(C)=O)cc2)cc1` (stereo unspecified) reads > 59.6 µM (inactive); that for `Cc1ccc(C(=O)c2c3ccccc3[n+]([O-])n2CCC(N)=O)cc1`, 8.04 µM. For the compound `COc1cc2c(cc1OC)C(c1cc(Br)ccc1F)N(C(=O)CCl)CC2` (stereo unspecified), the IC50 is > 59.6 µM (inactive). As for `O=C1C(=O)N(CCCc2ccccc2)c2ccccc21`, the IC50 entry was “inactive”. On to `Cn1cnc2cc(NC(=O)c3ccc(Cl)cc3)ccc21`, for which the IC50 was 3.28 µM. With `Cc1ccc(-c2cc(NC(=O)c3ccccc3[N+](=O)[O-])n[nH]2)cc1`, the IC50 entry was “inactive”.

Regarding `O=C(O)COc1ccc(Br)cc1C(c1c(C(=O)O)[nH]c2ccccc12)c1c(C(=O)O)[nH]c2ccccc12`, the IC50 entry is “inactive”. Turning to `CCC(C)(C)NC(=O)C(c1cccn1C)N(C(=O)Cn1nnc2ccccc21)c1ccc(NC(C)=O)cc1` (stereo unspecified), the IC50 was > 59.6 µM (inactive). The result for `CC1(C)C2CC=C(/C=N/NC(=S)Nc3cccnc3)C1C2` (stereo unspecified) reads > 59.6 µM (inactive). `O=C(CSc1ccccn1)Nc1nonc1[N+](=O)[O-]`: the IC50 was > 59.6 µM (inactive). As for `Cc1ccc(C(=O)O)cc1NC(=S)NC(=O)c1ccc(COc2ccccc2)cc1`, the 50% inhibitory concentration (IC50) was 2.48 µM. The result for `O=C(Oc1cccnc1)c1ccc(Cl)cc1` reads 7.99 µM; that for `CCC(C)c1ccc(N(C(=O)c2ccco2)C(C(=O)NC2CCCC2)c2cccnc2)cc1` (stereo unspecified), “inactive”.

As to `CC(=O)c1c(OC(=O)c2ccco2)c2ccccc2n1C`, the IC50 is > 59.6 µM (inactive). The figure for `O=C(Nc1ccc(OCC(F)(F)C(F)F)c(C(F)(F)F)c1)c1ccccc1O` is 0.596 µM; for `CC(C)c1ccc(N(C(=O)c2csnn2)C(C(=O)NC2CCCC2)c2cccnc2)cc1` (stereo unspecified) it is > 59.6 µM (inactive); for `O=C(c1cc(=O)[nH]c2ccccc12)N1CCN(c2ccccc2)CC1` it is > 59.6 µM (inactive). The result for `Cc1cc(C)c(N(C(=O)Cn2nnc3ccccc32)C(C(=O)NC(C)(C)C)c2ccsc2)c(C)c1` (stereo unspecified) reads > 59.6 µM (inactive). Turning to `Cc1ccc(/C=C/C(=O)c2cc(Br)ccc2OC(=O)c2ccco2)cc1`, the IC50 is > 59.6 µM (inactive). Regarding `O=c1[nH]c(=O)n(-c2ccccc2F)c(O)c1/C=C1\C=Nc2ccccc21`, the IC50 was > 59.6 µM (inactive). The result for `O=C(/C=C/c1c(F)cccc1Cl)Nc1cccnc1` reads 0.0628 µM; that for `Cc1cc(NC(=O)COC(=O)C(Nc2ccc(C(F)(F)F)cc2Cl)C(C)C)no1` (stereo unspecified), > 59.6 µM (inactive).

For the compound `COc1ccccc1/C=C/C(=O)c1cc(Br)ccc1OC(=O)c1ccco1`, the IC50 result is “inactive”. The result for `CCn1nc(-c2ccccc2)nc2c(=O)n(C)c(=O)nc1-2` reads 0.165 µM; that for `O=C(Cn1nnc2ccccc21)c1ccc(Cl)cc1`, 3.97 µM; that for `Cc1ccc(C2=NN(C(=O)CCl)C(c3ccco3)C2)o1` (stereo unspecified), > 59.6 µM (inactive).

On to `Cc1sc(NC(=O)CCl)c(C(=O)c2ccccc2)c1C`, for which the IC50 is > 59.6 µM (inactive). As to `Cc1cc(C(=O)CCl)c(C)n1-c1cccc([N+](=O)[O-])c1`, the IC50 was > 59.6 µM (inactive).

Consider `COc1ccc2c(c1)C(=O)C(=O)N2CC1COc2ccccc2O1` (stereo unspecified), for which the IC50 was > 59.6 µM (inactive). Regarding `COc1cccc(C(C(=O)NCC2CCCO2)N(C(=O)Cn2nnc3ccccc32)c2ccc(NC(C)=O)cc2)c1` (stereo unspecified), the IC50 was > 59.6 µM (inactive). With `COc1cccc(/C=N/NC(=S)Nc2cccnc2)c1`, the IC50 entry was “inactive”. Take `Cn1nc(-c2ccc(Cl)cc2)nc2c(=O)n(C)c(=O)nc1-2`: the IC50 was 0.111 µM. Consider `COc1ccc(C2C(O)C(c3c[nH]c4ccccc34)=NN2C(=O)CCl)cc1` (stereo unspecified), for which the IC50 was > 59.6 µM (inactive). Regarding `CC(C)c1ccc(N(C(=O)c2ccco2)C(C(=O)NC2CCCC2)c2cccnc2)cc1` (stereo unspecified), the IC50 is > 59.6 µM (inactive). For `CC(C)C[C@H](NC(=O)c1nc[nH]c1C(=O)NCc1ccc(CNC(=O)OC(C)(C)C)cc1)C(=O)OC(C)(C)C`, the IC50 is > 59.6 µM (inactive). For `CCN(CC)C(=O)Cn1cc(/C=C2\C(=O)NC(=O)N(c3ccccc3F)C2=O)c2ccccc21`, the IC50 is > 59.6 µM (inactive). The figure for `O=C(/C=C/c1cccs1)Nc1scc(-c2ccccc2)c1C(=O)O` is 0.0455 µM; for `COc1ccc(N(C(=O)Cn2nnc3ccccc32)C2(C(=O)NC3CCCC3)CCCCC2)cc1` it is > 59.6 µM (inactive). The figure for `COc1ccc2cc(C3(C)NC(=O)N(CC(=O)NCc4ccco4)C3=O)ccc2c1` (stereo unspecified) is > 59.6 µM (inactive); for `Cc1nnc(SC(=O)N2c3ccccc3Sc3ccccc32)s1` it is > 59.6 µM (inactive). `COc1cccc(C(C(=O)NCc2ccco2)N(Cc2ccco2)C(=O)Cn2nnc3ccccc32)c1` (stereo unspecified): the IC50 is > 59.6 µM (inactive). The result for `Cc1cc(=O)oc2cc(OC(=O)c3ccco3)ccc12` reads > 59.6 µM (inactive); that for `O=C(/C=C/c1ccccc1Cl)Nc1cccnc1`, 0.0388 µM.

`CC(=O)NC1C(=O)N(CCN2CCOCC2)c2ccc(Br)cc21` (stereo unspecified): the IC50 was > 59.6 µM (inactive).

For `O=C(NCc1ccco1)C(c1ccco1)N(C(=O)Cn1nnc2ccccc21)c1ccc2c(c1)CCC2` (stereo unspecified), the IC50 was > 59.6 µM (inactive).

`O=C(Oc1ccc(Br)cc1C(=O)/C=C/c1ccccc1F)c1ccco1`: the IC50 was > 59.6 µM (inactive). The result for `CN(C)S(=O)(=O)c1cccc(NC(=O)CSc2cccc3cccnc23)c1` reads > 59.6 µM (inactive); that for `CCc1nc(N2CCN(C(=O)CCl)CC2)c2c3c(sc2n1)CC(C)CC3` (stereo unspecified), > 59.6 µM (inactive). For the compound `COC(=O)c1ccc(OC(=O)CN2C(=O)c3ccccc3C2=O)cc1`, the IC50 result was “inactive”.

As for `O=C(Nc1ccccc1)NN(C(=O)CCl)c1ccccc1`, the IC50 is > 59.6 µM (inactive).

As for `CCOc1ccc2c(c1)C(=O)C(=O)N2CC1COc2ccccc2O1` (stereo unspecified), the IC50 was > 59.6 µM (inactive). Take `O=Cc1cn(Cc2ccccc2)nc1-c1cccnc1`: the IC50 was > 59.6 µM (inactive).

On to `COc1ccc(C(=O)n2c(SC)nc3cc4c(cc32)OCCO4)cc1`, for which the IC50 is 2.46 µM.

Regarding `O=C(Cc1ccc(Cl)c(Cl)c1)Nc1cccnc1`, the IC50 result was “inactive”. Consider `NC(=O)CCn1c(C(=O)c2ccc(Cl)cc2)c2ccccc2[n+]1[O-]`, for which the IC50 is > 59.6 µM (inactive). The result for `CCCCOc1ccc(C(=O)Oc2cccnc2)cc1` reads 1.61 µM; that for `CC1CCC2C(=O)N(c3cc(Cl)ccc3OC(=O)c3ccco3)C(=O)C2C1` (stereo unspecified), > 59.6 µM (inactive); that for `CC(=O)NC1C(=O)N(CCN2CCOCC2)c2ccc(F)cc21` (stereo unspecified), > 59.6 µM (inactive).

Take `O=C(CCl)N(CCc1ccccc1)CCc1ccccc1`: the IC50 entry was “inactive”. Turning to `O=C(N/N=C\c1c(O)ccc2ccccc12)c1cncc(Br)c1`, the IC50 is 8.21 µM. For `O=C(OCC(=O)N1c2ccccc2Sc2ccccc21)c1cccnc1`, the IC50 was > 59.6 µM (inactive). As to `Cc1cc(C)n(C(=O)c2ccc(C)c(Br)c2)n1`, the IC50 result was “inactive”.

`CCC(C)(C)NC(=O)C(c1ccc(O)cc1)N(C(=O)Cn1nnc2ccccc21)c1ccc(NC(C)=O)cc1` (stereo unspecified): the IC50 is > 59.6 µM (inactive). The result for `Cc1ccc(C(=O)c2c3ccc(C(F)(F)F)cc3[n+]([O-])n2CCC(N)=O)cc1` reads > 59.6 µM (inactive); that for `CCc1cc(=O)oc2cc(OC(=O)c3ccco3)ccc12`, > 59.6 µM (inactive). The result for `NC(=O)CCn1c(C(=O)c2cccc([N+](=O)[O-])c2)c2ccccc2[n+]1[O-]` reads > 59.6 µM (inactive). Turning to `Cc1ccc2[nH]c3c(c2c1)CN(C(=O)CN1c2ccc(F)cc2CCC1C)CC3` (stereo unspecified), the IC50 was > 59.6 µM (inactive).

In the case of `O=C(O)c1[nH]c2ccccc2c1C(c1cc(Br)ccc1O)c1c(C(=O)O)[nH]c2ccccc12`, the half-inhibitory concentration (IC50) was 9.17 µM. As to `COc1cc(/C=N\NC(=O)Cn2nnc3ccccc32)cc(OC)c1OC`, the IC50 is > 59.6 µM (inactive). The result for `O=C1NC(=O)N(c2ccccc2F)C(=O)/C1=C/c1cn(CC(=O)N2CCOCC2)c2ccccc12` reads > 59.6 µM (inactive).

Take `COc1ccc(C2CC(c3cccs3)=NN2C(=O)CCl)cc1OC` (stereo unspecified): the IC50 was > 59.6 µM (inactive). Take `CC(=O)n1cc(N(C(=O)CCl)c2ccc([N+](=O)[O-])cc2)c2ccccc21`: the IC50 is > 59.6 µM (inactive). Take `COc1ccccc1OCCNC(=O)c1cc(=O)[nH]c2ccccc12`: the IC50 was > 59.6 µM (inactive).
